These results are taken from patent publication US20030187035A1, “Substituted hydrazones as inhibitors of cyclooxygenase-2” (priority 2001, published 2003).

One data set has as its system DLD-1 cells. Description: Soft agar assay, anchorage-independent colony growth. Type of data set: cell-based. Conditions: DLD-1 human colorectal carcinoma cells in soft agar, three weeks. The protocol: The Example 2, 3, 4 and 9 compounds were compared to the COX-2 inhibitor celecoxib in inhibiting the growth of DLD-1 cells in soft agar. DLD-1 cells are human colorectal carcinoma cells that overexpress COX-2. DLD-1 cells grow in soft agar and form tumors in nude mice. The soft agar assay was performed as follows. Bottom agar was first prepared as a 3 mL layer of 0.8% noble agar prepared in complete growth medium (DMEM containing 10% FBS and 500 units of penicillin-streptomycin) and placed into 60 mm^2 tissue culture dishes. The tumor cells were trypsinized from normal growth flasks while in exponential growth. The cells were counted by using a hemacytometer and 5.0×10^4 viable cells were mixed with 0.4% noble agar containing growth medium and various concentrations of drugs. Non-treated control plates received DMSO alone. Each drug concentration was run in duplicate. The concentration range was normally between 10 μM to 75 μM. The plates were incubated at 37° C. under 95% humidity for three weeks and stained with a 0.05% (w/v) nitroblue tetrazolium solution. This solution will only stain viable cells so that all growing cell in the form of colonies will appear blue. The plates were photographed using an Olympus stereoscope mounted with a SONY digital camera system.

Data set [1] is described as follows: Bioavailability assay, plasma drug concentration after intraperitoneal injection. Type of data set: in vivo. Particulars: mice; for concentration at 120 min: mouse, plasma, ip, 120 minutes post injection. As to the method: The bioavailability of compound of Example 4 was examined as follows. Mice received a single dose (25 or 50 mg/kg) of compound suspended in DMSO via intraperitoneal injection. Plasma drug concentration was measured 120 minutes post injection.

The subject of another data set is HCT116. As to the kind of experiment: In vitro cytotoxicity assay (trypan exclusion, viable cell count). Type of data set: cell-based. Particulars: HCT-116; HCT116 human colo-rectal carcinoma, 96 hours. The protocol: (§1) The human colo-rectal carcinoma cell lines DLD-1, HT29, and HCT 116, and the human prostate carcinoma cell line DU145, were grown exponentially and plated onto 6 well dishes at a cell density of 1.0×10^5 cells per 35 mm well. Various concentration of 4-bromobenzaldehyde-4-sulfamylphenylhydrazone (Ex. 4) or DMSO were added 24 hours later. The number of viable cells were determined at each concentration tested 96 hours later by trypan exclusion using a hemacytometer. The GI50 (concentration of drug that inhibits 50% of tumor cell growth when compared to tumor cells treated with same volume of DMSO) was determined for each cell line.

The subject of the next data set is DLD-1. The description is as above. Type of data set: cell-based. Particulars: DLD-1 human colo-rectal carcinoma, 96 hours. As to the method:
as §1

The next data set relates to DU145. The data set is described as above. Type of data set: cell-based. Particulars: DU-145; DU145 human prostate carcinoma, 96 hours. The protocol:
as §1

The next data set has as its system HT29. The description is as above. Type of data set: cell-based. Conditions: HT-29; HT29 human colo-rectal carcinoma, 96 hours. As to the method: as §1
The same protocol was used to compare the growth inhibitory activity of 4-bromobenzaldehyde-4-sulfamylphenylhydrazone and celecoxib against the human colo-rectal tumor cell line HT29. The data are plotted as the percent of viable cells remaining as compared to DMSO (non-treated) cells.

The test system of another data set is mice. As to the kind of experiment: In vivo toxicity assay, survival after intraperitoneal dosing. Conditions: survival at seven days. The protocol: The compound of Example 4 was examined for in vivo toxicity in mice. Mice received intraperitoneal doses of compound suspended in DMSO, ranging from 25 to 400 mg/kg. Survival at seven days was determined.

One may read the GI50 as the concentration at which growth is held to half of that of the control. Low values mean more potent growth inhibition, high ones less potent growth inhibition.

As to `NS(=O)(=O)c1ccc(NN=Cc2ccc(F)cc2)cc1` [Example 2, 4-Fluorobenzaldehyde-4-sulfamylphenylhydrazone], in the data set on DLD-1 cells, the “Concentration Required for Complete DLD-1 Colony Growth Inhibition” value is 30 µM.
Consider `NS(=O)(=O)c1ccc(NN=Cc2ccc(Cl)cc2)cc1` [Example 3, 4-Chlorobenzaldehyde-4-sulfamylphenylhydrazone], for which, in the data set with DLD-1 cells, the “Concentration Required for Complete DLD-1 Colony Growth Inhibition” value came to 20 µM.
As to `NS(=O)(=O)c1ccc(NN=Cc2ccc(Br)cc2)cc1` [Example 4, 4-Bromobenzaldehyde-4-sulfamylphenylhydrazone], the “Bioavailability (in words)” value in data set [1] (single dose 25 or 50 mg/kg intraperitoneal) is “high level of bioavailability”. Also, the concentration at 120 min in data set [1] (single dose 25 mg/kg intraperitoneal) stood at 38 µg/mL; in data set [1] (single dose 50 mg/kg intraperitoneal) it was 165 µg/mL. For the same compound, the GI50 with HCT116 is 30 µM; in the data set on DLD-1, 30 µM; in the data set with DU145, 30 µM; with HT29, 8 µM. Further, the “Concentration Required for Complete DLD-1 Colony Growth Inhibition” value with DLD-1 cells was less than 20 µM; in the data set on DLD-1 cells (listed as Ex. 4), 20 µM. For the same compound, the “Percent Survival of Mice” value stood at 100% with mice (25 mg/kg intraperitoneal); 100% in the data set with mice (50 mg/kg intraperitoneal); 100% in the data set with mice (100 mg/kg intraperitoneal); 100% in the data set on mice (200 mg/kg intraperitoneal); 80% with mice (400 mg/kg intraperitoneal). Also, the “In vivo toxicity in mice (in words)” value with mice (intraperitoneal doses 25 to 400 mg/kg) is recorded as “very low mammalian toxicity”.
Take `COc1ccc(C=NNc2ccc(S(N)(=O)=O)cc2)cc1` [Example 9, 4-Methoxybenzaldehyde-4-sulfamylphenylhydrazone]: the “Concentration Required for Complete DLD-1 Colony Growth Inhibition” value with DLD-1 cells is more than 75 µM.
In turn, `Cc1ccc(-c2cc(C(F)(F)F)nn2-c2ccc(S(N)(=O)=O)cc2)cc1` [celecoxib, reference compound] came in with a concentration for 50% growth inhibition (GI50) with HT29 of 25 µM.
